From BigSolDB 2.1

## CSCC[C@H](NC(=O)OCC1c2ccccc2-c2ccccc21)C(=O)O
In 2-butanone, 283.15 K
  solubility (mole fraction): 0.0269
In 2-butanone, 288.15 K
  solubility (mole fraction): 0.0314
In 2-butanone, 293.15 K
  solubility (mole fraction): 0.0336
In 2-butanone, 298.15 K
  solubility (mole fraction): 0.0406
In 2-butanone, 303.15 K
  solubility (mole fraction): 0.0454
In 2-butanone, 308.15 K
  solubility (mole fraction): 0.0513
In 2-butanone, 313.15 K
  solubility (mole fraction): 0.0621
In 2-butanone, 318.15 K
  solubility (mole fraction): 0.0695
In 2-butanone, 323.15 K
  solubility (mole fraction): 0.0818
In acetone, 283.15 K
  solubility (mole fraction): 0.0457
In acetone, 288.15 K
  solubility (mole fraction): 0.0475
In acetone, 293.15 K
  solubility (mole fraction): 0.0553
In acetone, 298.15 K
  solubility (mole fraction): 0.0614
In acetone, 303.15 K
  solubility (mole fraction): 0.0722
In acetone, 308.15 K
  solubility (mole fraction): 0.0806
In acetone, 313.15 K
  solubility (mole fraction): 0.0892
In acetone, 318.15 K
  solubility (mole fraction): 0.0961
In acetone, 323.15 K
  solubility (mole fraction): 0.11
In acetonitrile, 283.15 K
  solubility (mole fraction): 0.00368
In acetonitrile, 288.15 K
  solubility (mole fraction): 0.00465
In acetonitrile, 293.15 K
  solubility (mole fraction): 0.00571
In acetonitrile, 298.15 K
  solubility (mole fraction): 0.00724
In acetonitrile, 303.15 K
  solubility (mole fraction): 0.00847
In acetonitrile, 308.15 K
  solubility (mole fraction): 0.00974
In acetonitrile, 313.15 K
  solubility (mole fraction): 0.0111
In acetonitrile, 318.15 K
  solubility (mole fraction): 0.0127
In acetonitrile, 323.15 K
  solubility (mole fraction): 0.0155
In isobutanol, 283.15 K
  solubility (mole fraction): 0.00438
In isobutanol, 288.15 K
  solubility (mole fraction): 0.00573
In isobutanol, 293.15 K
  solubility (mole fraction): 0.00736
In isobutanol, 298.15 K
  solubility (mole fraction): 0.0102
In isobutanol, 303.15 K
  solubility (mole fraction): 0.0136
In isobutanol, 308.15 K
  solubility (mole fraction): 0.0165
In isobutanol, 313.15 K
  solubility (mole fraction): 0.023
In isobutanol, 318.15 K
  solubility (mole fraction): 0.032
In isobutanol, 323.15 K
  solubility (mole fraction): 0.0402
In isopentanol, 283.15 K
  solubility (mole fraction): 0.00409
In isopentanol, 288.15 K
  solubility (mole fraction): 0.00489
In isopentanol, 293.15 K
  solubility (mole fraction): 0.00573
In isopentanol, 298.15 K
  solubility (mole fraction): 0.00778
In isopentanol, 303.15 K
  solubility (mole fraction): 0.00996
In isopentanol, 308.15 K
  solubility (mole fraction): 0.0126
In isopentanol, 313.15 K
  solubility (mole fraction): 0.0154
In isopentanol, 318.15 K
  solubility (mole fraction): 0.02
In isopentanol, 323.15 K
  solubility (mole fraction): 0.0248
In isopropanol, 283.15 K
  solubility (mole fraction): 0.00635
In isopropanol, 288.15 K
  solubility (mole fraction): 0.00765
In isopropanol, 293.15 K
  solubility (mole fraction): 0.00792
In isopropanol, 298.15 K
  solubility (mole fraction): 0.00932
In isopropanol, 303.15 K
  solubility (mole fraction): 0.0142
In isopropanol, 308.15 K
  solubility (mole fraction): 0.0213
In isopropanol, 313.15 K
  solubility (mole fraction): 0.0326
In isopropanol, 318.15 K
  solubility (mole fraction): 0.0474
In isopropanol, 323.15 K
  solubility (mole fraction): 0.0669
In n-butanol, 283.15 K
  solubility (mole fraction): 0.0142
In n-butanol, 288.15 K
  solubility (mole fraction): 0.0178
In n-butanol, 293.15 K
  solubility (mole fraction): 0.0204
In n-butanol, 298.15 K
  solubility (mole fraction): 0.0237
In n-butanol, 303.15 K
  solubility (mole fraction): 0.0295
In n-butanol, 308.15 K
  solubility (mole fraction): 0.0339
In n-butanol, 313.15 K
  solubility (mole fraction): 0.0394
In n-butanol, 318.15 K
  solubility (mole fraction): 0.0478
In n-butanol, 323.15 K
  solubility (mole fraction): 0.0542
In n-butyl acetate, 283.15 K
  solubility (mole fraction): 0.0129
In n-butyl acetate, 288.15 K
  solubility (mole fraction): 0.015
In n-butyl acetate, 293.15 K
  solubility (mole fraction): 0.0173
In n-butyl acetate, 298.15 K
  solubility (mole fraction): 0.0203
In n-butyl acetate, 303.15 K
  solubility (mole fraction): 0.0242
In n-butyl acetate, 308.15 K
  solubility (mole fraction): 0.028
In n-butyl acetate, 313.15 K
  solubility (mole fraction): 0.0347
In n-butyl acetate, 318.15 K
  solubility (mole fraction): 0.0426
In n-butyl acetate, 323.15 K
  solubility (mole fraction): 0.0532
In n-pentanol, 283.15 K
  solubility (mole fraction): 0.00977
In n-pentanol, 288.15 K
  solubility (mole fraction): 0.0117
In n-pentanol, 293.15 K
  solubility (mole fraction): 0.0149
In n-pentanol, 298.15 K
  solubility (mole fraction): 0.019
In n-pentanol, 303.15 K
  solubility (mole fraction): 0.0272
In n-pentanol, 308.15 K
  solubility (mole fraction): 0.033
In n-pentanol, 313.15 K
  solubility (mole fraction): 0.0399
In n-pentanol, 318.15 K
  solubility (mole fraction): 0.0514
In n-pentanol, 323.15 K
  solubility (mole fraction): 0.0667
In n-propanol, 283.15 K
  solubility (mole fraction): 0.0101
In n-propanol, 288.15 K
  solubility (mole fraction): 0.0141
In n-propanol, 293.15 K
  solubility (mole fraction): 0.0172
In n-propanol, 298.15 K
  solubility (mole fraction): 0.0231
In n-propanol, 303.15 K
  solubility (mole fraction): 0.0271
In n-propanol, 308.15 K
  solubility (mole fraction): 0.0324
In n-propanol, 313.15 K
  solubility (mole fraction): 0.0407
In n-propanol, 318.15 K
  solubility (mole fraction): 0.0496
In n-propanol, 323.15 K
  solubility (mole fraction): 0.0542
In n-propyl acetate, 283.15 K
  solubility (mole fraction): 0.0155
In n-propyl acetate, 288.15 K
  solubility (mole fraction): 0.0181
In n-propyl acetate, 293.15 K
  solubility (mole fraction): 0.021
In n-propyl acetate, 298.15 K
  solubility (mole fraction): 0.0252
In n-propyl acetate, 303.15 K
  solubility (mole fraction): 0.0295
In n-propyl acetate, 308.15 K
  solubility (mole fraction): 0.0361
In n-propyl acetate, 313.15 K
  solubility (mole fraction): 0.0399
In n-propyl acetate, 318.15 K
  solubility (mole fraction): 0.043
In n-propyl acetate, 323.15 K
  solubility (mole fraction): 0.0456
In sec-butanol, 283.15 K
  solubility (mole fraction): 0.00898
In sec-butanol, 288.15 K
  solubility (mole fraction): 0.0109
In sec-butanol, 293.15 K
  solubility (mole fraction): 0.0152
In sec-butanol, 298.15 K
  solubility (mole fraction): 0.0223
In sec-butanol, 303.15 K
  solubility (mole fraction): 0.0311
In sec-butanol, 308.15 K
  solubility (mole fraction): 0.0438
In sec-butanol, 313.15 K
  solubility (mole fraction): 0.0506
In sec-butanol, 318.15 K
  solubility (mole fraction): 0.0612
In sec-butanol, 323.15 K
  solubility (mole fraction): 0.0868
